Reference: US7326710B2, “Aralkyl formyl-alkyl piperazine derivatives and their uses as a cerebral nerve protective agent” (Shanghai Institute of Pharmaceutical Industry, priority 2002, dated 2008)
Like-named read-outs stand apart in the source and are kept apart here.

Assays:
[1] = test system: anoxia induced by sodium nitrite in mice; test: Anti-cerebral anoxia in mice, anoxia induced by sodium nitrite; type: in vivo; conditions: sodium nitrite 225 mg/kg ip, compound 20 mg/kg sc; for ILS at 20 mg/kg: Mus musculus, sc
Procedure: The rates of the prolongation of 9 compounds (IV-2, 10, 23, 32, 34, 36, 39, 40, 41) were more than 50%, which indicated the effect of anti-cerebral anoxia. IV-23 and IV-2 prolonged the survival duration by 100% of the animals, showing remarkably protective action for cerebral anoxia. (Table 3)
One model was established to test the time needed for mice to die because of anoxia caused by sodium nitrite (225 mg/kg, ip). IV-23 (20 mg/kg, sc) can prolong the time for 100%, indicating significant anti-cerebral anoxic anoxia activity.

[2] = test system: NMDA receptor; test: Maximum contraction of isolated guinea pig longitudinal ileum muscle preparations induced by L-Glu; conditions: for excitation: concentration, direct excitation of the preparation; for Glu-like excited action: excite preparations directly and induce contraction; for antagonism % (restrain rate of contraction of preparations): compound 10^−5M, contraction induced by L-Glu
Excerpt: According to the literature (Luzzi, Br J Pharmacol, 95:1271, 1988), maximum contraction of isolated longitudinal ileomuscle preparations of guinea pig induced by L-Glu, were used to examine the activities of the compounds on the NMDA receptor.

[3] = test system: focal cerebral ischemia in rats; test: Focal cerebral ischemia in rats by occlusion of middle cerebral artery (MCA); type: in vivo; conditions: 20 mg/kg p.o.; for Neurological deficit 24 h: 24 h after operation
Procedure: The focal ischemia rat model by occlusion of middle cerebral artery (MCA) was used to determine the protective effects of the compounds on focal cerebral ischemia. The infarct size after focal cerebral ischemia and the weight percentage of cerebral hemisphere were calculated to evaluate the compounds' effects on focal cerebral ischemia.

[4] = mice, read-out: Prolonging the survival duration (%)
[5] = read-out: Prolonging the survival duration (%), mice

## O=C(CN1CCN(C(=O)c2ccccc2)CC1)c1ccccc1 [IV-1, N^1-benzoyl-N^4-phenacyl-piperazine]
[1]; [4]
  ILS at 20 mg/kg: 3%
[2]; unit not given
  excitation: 3 × 10^−6
[2]
  Glu-like excited action: could excite preparations directly

## O=C(CN1CCN(CC(=O)c2ccccc2)CC1)c1ccccc1 [IV-2, N^1,N^4-diphenacyl-piperazine]
[2]
  antagonism % (restrain rate of contraction of preparations): 25%

## O=C(CN1CCN(C(=O)c2ccc([N+](=O)[O-])cc2)CC1)c1ccccc1 [IV-3, N^1-(4-nitrobenzoyl)-N^4-phenacyl-piperazine]
[1]; [4]
  ILS at 20 mg/kg: 7%
[2]
  antagonism % (restrain rate of contraction of preparations): 37%

## O=C(CN1CCN(CC(=O)c2ccc(Cl)cc2)CC1)c1ccccc1 [IV-5, N^1-phenacyl-N^4-(4-chlorophenacyl) piperazine]
[1]; [4]
  ILS at 20 mg/kg: 22%
[2]
  antagonism % (restrain rate of contraction of preparations): 30%

## O=C(CN1CCN(CC(=O)c2ccc(Cl)cc2)CC1)c1ccc(Cl)cc1 [IV-6, N^1,N^4-di (4-chlorophenacyl) piperazine]
[1]; [4]
  ILS at 20 mg/kg: 4%
[2]
  antagonism % (restrain rate of contraction of preparations): 25%

## O=C(CN1CCN(CC(=O)c2ccc3ccccc3c2)CC1)c1ccccc1 [IV-7, N^1-(2-naphthoylmethyl)-N^4-phenacyl-piperazine]
[1]; [4]
  ILS at 20 mg/kg: 21%
[2]
  antagonism % (restrain rate of contraction of preparations): 25%

## CC(C(=O)c1ccccc1)N1CCN(CC(=O)c2ccccc2)CC1 (stereo not drawn) [IV-8, N^1-(1-benzoylethyl)-N^4-phenacyl-piperazine]
[1]; mice
  Prolonging the survival duration (%): 21%
[2]
  antagonism % (restrain rate of contraction of preparations): 25%

## COc1ccc(C(=O)CN2CCN(CC(=O)c3ccccc3)CC2)cc1 [IV-9, N^1-phenacyl-N^4-(4-methoxyphenacyl) piperazine]
[1]; [4]
  ILS at 20 mg/kg: 30%
[2]; unit not given
  excitation: 10^−5
[2]
  Glu-like excited action: could excite preparations directly

## CC(C(=O)c1ccccc1)N1CCN(C(C)C(=O)c2ccccc2)CC1 (stereo not drawn) [IV-10, N^1,N^4-di (1-benzoylethyl) piperazine]
[1]; [5]
  ILS at 20 mg/kg: > 50%
[2]; unit not given
  excitation: 10^−5
[2]
  Glu-like excited action: could excite preparations directly

## O=C(CN1CCN(CC(=O)c2ccc([N+](=O)[O-])cc2)CC1)c1ccccc1 [IV-11, N^1-phenacyl-N^4-(4-nitrophenacyl) piperazine]
[1]; [4]
  ILS at 20 mg/kg: 2%
[2]; unit not given
  excitation: 10^−5
[2]
  Glu-like excited action: could excite preparations directly

## CC(C(=O)c1ccccc1)N1CCN(CC(=O)c2ccccc2)CC1 (stereo not drawn) [IV-13, N^1-(1-benzoylethyl)-N^4-phenacyl-piperazine]
[1]; [5]
  ILS at 20 mg/kg: 32%

## COc1ccc(C(=O)CN2CCN(C(=O)Cc3ccccc3O)CC2)cc1 [IV-16, N^1-(4-methoxyphenacyl)-N^4-[(2-hydroxy)phenylacetyl] piperazine]
[1]; [5]
  ILS at 20 mg/kg: 30%

## CC(C(=O)c1ccccc1)N1CCN(C(=O)C(O)c2ccc(Cl)cc2)CC1 (stereo not drawn) [IV-17, N^1-(1-benzoylethyl)-N^4-[2-hydroxy-2-(4-chlorophenyl)acetyl] piperazine]
[1]; [5]
  ILS at 20 mg/kg: 14%

## CC(C(=O)c1ccccc1)N1CCN(C(=O)Cc2ccccc2O)CC1 (stereo not drawn) [IV-18, N^1-(1-benzoylethyl)-N^4-[(2-hydroxy)phenylacetyl] piperazine]
[1]; [5]
  ILS at 20 mg/kg: 25%

## O=C(CN1CCN(C(=O)C(O)c2ccc(Cl)cc2)CC1)c1ccccc1 (stereo not drawn) [IV-19, N^1-phenacyl-N^4-[2-hydroxy-2-(4-chlorophenyl)acetyl] piperazine]
[1]; [4]
  ILS at 20 mg/kg: 18%

## COc1ccc2cc(C(=O)C(C)N3CCN(CC(=O)c4ccccc4)CC3)ccc2c1Cl (stereo not drawn) [IV-20, N^1-phenacyl-N^4-[1-(5-chloro-6-methoxy-2-naphthoyl)ethyl]piperazine]
[3]
  Infarct volume: 0.14 ± 0.04 g
  Neurological deficit After operation: 9.5 ± 0.6
  Percentage of infarct volume (%): 18.80 ± 5.61 %
  Neurological deficit 24 h: 8.8 ± 1.3

## O=C(CN1CCN(CC=Cc2ccccc2)CC1)NCc1ccccc1 [IV-21, N1-[2-(benzylamino)-2-oxo-ethyl]-N^4-cinnamyl piperazine]
[1]; [4]
  ILS at 20 mg/kg: 33%
[3]
  Infarct volume: 0.12 ± 0.07 g
  Neurological deficit After operation: 9.8 ± 0.5
  Percentage of infarct volume (%): 15.53 ± 8.27 %
  Neurological deficit 24 h: 6.8 ± 2.5

## O=C(CN1CCN(CC(=O)c2ccccc2)CC1)Nc1ccccc1 [IV-24, N^1-phenacyl-N^4-[2-(phenylamino)-2-oxo-ethyl] piperazine]
[1]; [4]
  ILS at 20 mg/kg: 34%

## O=C(CN1CCN(CC(=O)NCc2ccccc2)CC1)NCc1ccccc1 [IV-25, N^1,N^4-di[2-(benzylamino)-2-oxo-ethyl] piperazine]
[1]; [4]
  ILS at 20 mg/kg: 30%

## CC(C(=O)c1ccccc1)N1CCN(CC(=O)NCc2ccccc2)CC1 (stereo not drawn) [IV-26, N^1-(1-benzoylethyl)-N^4-[2-(benzylamino)-2-oxo-ethyl] piperazine]
[1]; [5]
  ILS at 20 mg/kg: 36%

## O=C(CN1CCN(CC(=O)c2ccccc2)CC1)NCc1ccc2c(c1)OCO2 [IV-32, N^1-phenacyl-N^4-[2-(3,4-methylenedioxybenzylamino)-2-oxo-ethyl] piperazine]
[1]; [4]
  ILS at 20 mg/kg: > 50%

## COc1ccc2cc(C(=O)C(C)N3CCN(CC(=O)NCc4ccccc4)CC3)ccc2c1Cl (stereo not drawn) [IV-33, N^1-[1-(5-chloro-6-methoxy-2-naphthoyl)ethyl]-N^4-[2-(benzylamino)-2-oxo-ethyl] piperazine]
[3]
  Infarct volume: 0.12 ± 0.04 g
  Neurological deficit After operation: 9.6 ± 0.6
  Neurological deficit 24 h: 8.4 ± 1.5

## O=C(c1ccccc1)N1CCN(CC(O)c2ccccc2)CC1 (stereo not drawn) [IV-34, N^1-benzoyl-N^4-(2-phenylethyl-2-ol) piperazine]
[2]
  antagonism % (restrain rate of contraction of preparations): 25%

## O=C(c1ccc([N+](=O)[O-])cc1)N1CCN(CC(O)c2ccccc2)CC1 (stereo not drawn) [IV-35, N^1-(4-nitrobenzoyl)-N^4-(2-phenylethyl-2-ol) piperazine]
[1]; mice
  Prolonging the survival duration (%): 42%
[2]; unit not given
  excitation: 3 × 10^−5
[2]
  Glu-like excited action: could excite preparations directly

## O=C(CN1CCN(CC(O)c2ccccc2)CC1)NCc1ccccc1 (stereo not drawn) [IV-37, N^1-[2-(benzylamino)-2-oxo-ethyl]-N^4-(2-phenylethyl-2-ol) piperazine]
[1]; mice
  Prolonging the survival duration (%): 13%

## CC(C(=O)c1ccccc1)N1CCN(C(=O)[C@@H](O)c2ccccc2)CC1 (stereo partly drawn) [IV-44, N^1-(S-2-hydroxy-1-oxo-2-phenylethyl)-N^4-(1-benzoylethyl) piperazine]
[1]; mice
  Prolonging the survival duration (%): 3%

## N#Cc1cccc(CS(=O)(=O)N2CCN(CC(=O)c3ccccc3)CC2)c1 [IV-48, N^1-phenacyl-N^4-(3-cyanophenylmethylsulfonyl) piperazine]
[1]; [4]
  ILS at 20 mg/kg: 16%

## COc1ccc2cc(C(=O)C(C)N3CCN(CC(=O)NC(C)c4ccccc4)CC3)ccc2c1Cl (stereo not drawn) [IV-49, N^1-[1-(5-chloro-6-methoxy-2-naphthoyl)ethyl]-N^4-[2-(1-phenylethanamino)-2-oxo-ethyl] piperazine]
[1]; mice
  Prolonging the survival duration (%): 30%

## O=C(CN1CCN(S(=O)(=O)Cc2ccc(Oc3ccccc3)cc2)CC1)c1ccccc1 [IV-53, N^1-phenacyl-N^4-(4-phenoxybenzylsulfonyl) piperazine]
[1]; [4]
  ILS at 20 mg/kg: 15%

## O=C(CN1CCN(S(=O)(=O)Cc2ccccc2CS(=O)(=O)c2ccccc2)CC1)c1ccccc1 [IV-54, N^1-phenacyl-N^4-[2-(benzenesulfonylmethyl)benzylsulfonyl] piperazine]
[1]; [4]
  ILS at 20 mg/kg: 25%

## O=C(CN1CCN(S(=O)(=O)Cc2ccc(C(F)(F)F)cc2)CC1)c1ccccc1 [IV-55, N^1-phenacyl-N^4-(4-trifluoromethylbenzylsulfonyl) piperazine]
[1]; [4]
  ILS at 20 mg/kg: 4%

## O=C(CN1CCN(S(=O)(=O)Cc2ccc(-c3ccccc3)cc2)CC1)c1ccccc1 [IV-56, N^1-phenacyl-N^4-(4-phenylbenzylsulfonyl) piperazine]
[1]; [4]
  ILS at 20 mg/kg: 25%

## N#Cc1ccccc1-c1ccc(CS(=O)(=O)N2CCN(CC(=O)c3ccccc3)CC2)cc1 [IV-58, N^1-phenacyl-N^4-[4-(2-cyanophenyl)benzylsulfonyl] piperazine]
[1]; [4]
  ILS at 20 mg/kg: 25%

## N#Cc1ccccc1-c1ccc(CS(=O)(=O)N2CCN(CC(=O)NCc3ccccc3)CC2)cc1 [IV-61, N^1-[2-(benzylamino)-2-oxo-ethyl]-N^4-[4-(2-cyanophenyl)benzylsulfonyl] piperazine]
[1]; [4]
  ILS at 20 mg/kg: 22%

## O=C(CN1CCN(S(=O)(=O)Cc2ccccc2CS(=O)(=O)c2ccccc2)CC1)NCc1ccccc1 [IV-62, N^1-[2-(benzylamino)-2-oxo-ethyl]-N^4-[2-(benzenesulfonylmethyl)benzylsulfonyl] piperazine]
[1]; [4]
  ILS at 20 mg/kg: 36%

## O=C(CN1CCN(S(=O)(=O)Cc2ccc([N+](=O)[O-])cc2)CC1)NCc1ccccc1 [IV-64, N^1-[2-(benzylamino)-2-oxo-ethyl]-N^4-(4-nitrobenzylsulfonyl) piperazine]
[1]; [4]
  ILS at 20 mg/kg: 20%

## CC(C(O)c1ccc(O)cc1)N1CCC(Cc2ccccc2)CC1 (stereo not drawn) [Ifenprodil, reference compound]
[2]
  antagonism % (restrain rate of contraction of preparations): 41%(10^−5)

## CNC1(c2ccccc2Cl)CCCCC1=O (stereo not drawn) [Ket, Ketamine, reference compound]
[2]; positive control, unit not given
  antagonism (value printed as a concentration in the antagonism % column): 5.61 × 10^−7

## N[C@@H](CCC(=O)O)C(=O)O [L-Glu, reference compound]
[2]; unit not given
  excitation: 3.89 × 10^−5
